According to patent US20230201144A1, “BIARYLSULFONAMIDES AND PHARMACEUTICAL COMPOSITIONS THEREOF, AND THEIR USE FOR TREATING FIBROTIC LUNG DISEASE” (NovoMedix, LLC, priority 2020, published 2023):
“And” between values parts separate entries of the source, which are not always exact repeats. Identical values can stand only once.

Test system: Alpha smooth muscle actin (α-SMA) levels
Assay: α-SMA levels by Western blot in TGF-β-treated normal human lung fibroblasts (headed Cell Proliferation Assay)
Format: cell-based
Settings: 10 ng/mL TGF-β, 24 h; for Relative α-SMA 5 μM / Relative α-SMA 20 μM: Table 4; for Relative α-SMA 5 μM: compound 5 μM; for Relative α-SMA 20 μM: compound 20 μM
Procedure: Normal human lung fibroblasts were plated in a 6-well plate at 100,000 cells per well in 1 mL of DMEM supplemented with 10% FBS. The cells were incubated overnight at 37° C. under 5% CO2. The next day, the cells were serum starved (medium was removed and 1 mL of fresh DMEM without serum was added). The cells were incubated overnight.
The cells were treated with a test compound in DMEM, 5% FBS in the presence of 10 ng/mL TGF-β and incubated for 24 h. The cells were lysed with an M-PER buffer. Alpha smooth muscle actin (α-SMA) levels were determined by Western blot and normalized to 0-tubulin levels using cell signaling antibodies. Blots were probed with secondary antibodies from LI-COR® Biosciences and read using a scanner from LI-COR® Biosciences. Quantification was also done using a software from LI-COR® Biosciences. The results are shown in Tables 1 to 4 below, where the control (Ctrl) is the fibroblasts in the absence of TGF-β and a test compound.

[1] = single agent 5 μM, TGF-β alone = 1 (Tables 1-3)
[2] = single agent 10 μM, TGF-β alone = 1
[3] = single agent 20 μM, TGF-β alone = 1 (Tables 1-3)

SMILES	Relative α-SMA 5 μM	Relative α-SMA 20 μM	further results
Cc1cc(NS(=O)(=O)c2c(C(C)C)cc(C(C)C)cc2C(C)C)cc(C(F)(F)F)c1 [A1, 2,4,6-Triisopropyl-N-(3-methyl-5-(trifluoromethyl)phenyl)benzenesulfonamide]	0.98	0.37	–
COC(=O)c1cc(NS(=O)(=O)c2c(C(C)C)cc(C(C)C)cc2C(C)C)cc(C(F)(F)F)c1 [A2, Methyl 3-(trifluoromethyl)-5-((2,4,6-triisopropylphenyl)sulfonamido)benzoate]	1.05	0.23	–
CC(C)c1cc(C(C)C)c(S(=O)(=O)Nc2cc(C(=O)O)cc(C(F)(F)F)c2)c(C(C)C)c1 [A3, 3-(Trifluoromethyl)-5-((2,4,6-triisopropylphenyl)sulfonamido)benzoic acid]	0.79	0.73	–
CCCCNC(=O)c1cc(NS(=O)(=O)c2c(C(C)C)cc(C(C)C)cc2C(C)C)cc(C(F)(F)F)c1 [A4, N-Butyl-3-(trifluoromethyl)-5-((2,4,6-triisopropylphenyl)sulfonamido)benzamide]	1.30	0.46	–
CC(C)c1cc(C(C)C)c(S(=O)(=O)Nc2cc(NC(=O)OC(C)(C)C)cc(C(F)(F)F)c2)c(C(C)C)c1 [A5, Tert-butyl (3-(trifluoromethyl)-5-((2,4,6-triisopropylphenyl)sulfonamido)-phenyl)carbamate]	0.95	0.21	–
CC(C)c1cc(C(C)C)c(S(=O)(=O)Nc2cc(N)cc(C(F)(F)F)c2)c(C(C)C)c1 [A6, N-(3-Amino-5-(trifluoromethyl)phenyl)-2,4,6-triisopropylbenzenesulfonamide]	1.08	0.05	–
CC(=O)Nc1cc(NS(=O)(=O)c2c(C(C)C)cc(C(C)C)cc2C(C)C)cc(C(F)(F)F)c1 [A7, N-(3-(Trifluoromethyl)-5-((2,4,6-triisopropylphenyl)sulfonamido)phenyl)-acetamide]	1.60	0.33	–
CCN(CC)c1cc(NS(=O)(=O)c2c(C(C)C)cc(C(C)C)cc2C(C)C)cc(C(F)(F)F)c1 [A8, N-(3-(Diethylamino)-5-(trifluoromethyl)phenyl)-2,4,6-triisopropylbenzenesulfonamide]	0.88	0.33	–
Cc1cc(C(C)(C)C)cc(C)c1S(=O)(=O)Nc1cc(OCCCC#N)cc(C(F)(F)F)c1 [A9, 4-(Tert-butyl)-N-(3-(3-cyanopropoxy)-5-(trifluoromethyl)phenyl)-2,6-dimethylbenzenesulfonamide]	1.05	0.78	–
Cc1cc(C(C)(C)C)cc(C)c1S(=O)(=O)Nc1cc(OCCCCN)cc(C(F)(F)F)c1 [A10, N-(3-(4-Aminobutoxy)-5-(trifluoromethyl)phenyl)-4-(tert-butyl)-2,6-dimethylbenzenesulfonamide]	0.69	–	–
CC(C)c1cc(C(C)C)c(S(=O)(=O)Nc2cc(OCCCCN)cc(C(F)(F)F)c2)c(C(C)C)c1 [A11, N-(3-(4-Aminobutoxy)-5-(trifluoromethyl)phenyl)-2,4,6-triisopropylbenzenesulfonamide]	0.85	–	–
Cc1cc(C(C)(C)C)cc(C)c1S(=O)(=O)Nc1cc(OCCN(C)C)cc(C(F)(F)F)c1 [A12, 4-(Tert-butyl)-N-(3-(2-(dimethylamino)ethoxy)-5-(trifluoromethyl)phenyl)-2,6-dimethylbenzenesulfonamide]	0.37	–	–
Cc1cc(C(C)(C)C)cc(C)c1S(=O)(=O)Nc1cc(CCCN(C)C)cc(C(F)(F)F)c1 [A13, 4-(Tert-butyl)-N-(3-(3-(dimethylamino)propyl)-5-(trifluoromethyl)phenyl)-2,6-dimethylbenzenesulfonamide]	0.29	–	–
Cc1cc(C(C)(C)C)cc(C)c1S(=O)(=O)Nc1cc(CCCN2CCOCC2)cc(C(F)(F)F)c1 [A14, 4-(Tert-butyl)-2,6-dimethyl-N-(3-(3-morpholinopropyl)-5-(trifluoromethyl)-phenyl)benzenesulfonamide]	0.53	–	–
Cc1cc(C(C)(C)C)cc(C)c1S(=O)(=O)Nc1cc(C2CCN(C)CC2)cc(C(F)(F)F)c1 [A15, 4-(Tert-butyl)-2,6-dimethyl-N-(3-(1-methylpiperidin-4-yl)-5-(trifluoromethyl)-phenyl)benzenesulfonamide]	0.31	–	–
Cc1cc(C(C)(C)C)cc(C)c1S(=O)(=O)Nc1cc(Br)cc(C(F)(F)F)c1 [A16, N-(3-Bromo-5-(trifluoromethyl)phenyl)-4-(tert-butyl)-2,6-dimethylbenzenesulfonamide]	0.35	–	–
COc1cc(NS(=O)(=O)c2c(C)cc(C(C)(C)C)cc2C)cc(C(F)(F)F)c1 [A17, 4-(Tert-butyl)-N-(3-methoxy-5-(trifluoromethyl)phenyl)-2,6-dimethylbenzenesulfonamide]	0.46	–	–
Cc1cc(C(C)(C)C)cc(C)c1S(=O)(=O)Nc1cc(O)cc(C(F)(F)F)c1 [A18, 4-(Tert-butyl)-N-(3-hydroxy-5-(trifluoromethyl)phenyl)-2,6-dimethylbenzenesulfonamide]	0.57	0.28	Relative α-SMA [1]: 1.26; Relative α-SMA [2]: 0.86; Relative α-SMA [3]: 0.06
COc1cc(NS(=O)(=O)c2c(C(C)C)cc(C(C)C)cc2C(C)C)c(C)c(C(F)(F)F)c1 [A19, 2,4,6-Triisopropyl-N-(5-methoxy-2-methyl-3-(trifluoromethyl)phenyl)-benzenesulfonamide]	0.56	–	–
Cc1c(NS(=O)(=O)c2c(C(C)C)cc(C(C)C)cc2C(C)C)cc(O)cc1C(F)(F)F [A20, N-(5-Hydroxy-2-methyl-3-(trifluoromethyl)phenyl)-2,4,6-triisopropylbenzenesulfonamide]	0.27	–	–
Cc1c(Br)cc(C(F)(F)F)cc1NS(=O)(=O)c1c(C(C)C)cc(C(C)C)cc1C(C)C [A21, N-(3-Bromo-2-methyl-5-(trifluoromethyl)phenyl)-2,4,6-triisopropylbenzenesulfonamide]	0.45	–	–
Cc1cc(C(C)(C)C)cc(C)c1S(=O)(=O)Nc1cc(C2CCNCC2)cc(C(F)(F)F)c1 [A22, 4-(Tert-butyl)-2,6-dimethyl-N-(3-(piperidin-4-yl)-5-(trifluoromethyl)phenyl)-benzenesulfonamide]	0.21	0.12	–
Cc1c(NS(=O)(=O)c2c(C(C)C)cc(C(C)C)cc2C(C)C)cc(C(F)(F)F)cc1C(F)(F)F [B4, N-(2-methyl-3,5-bis(trifluoromethyl)phenyl)-2,4,6-triisopropyl-benzene-sulfonamide]	–	–	Relative α-SMA (single agent 2 μM, normalized to tubulin, TGF-β alone = 1): 0.95; Relative α-SMA [1]: 0.69; Relative α-SMA [2]: 0.15
Cc1cc(C(C)(C)C)cc(C)c1S(=O)(=O)Nc1cc(C(F)(F)F)cc(C(F)(F)F)c1 [B5, N-(3,5-bis(trifluoromethyl)phenyl)-4-(tert-butyl)-2,6-dimethylbenzene-sulfonamide]	–	–	Relative α-SMA [1]: 0.91; Relative α-SMA [2]: 0.75; Relative α-SMA [3]: 0.24
COC(=O)c1ccc2c(c1)NC(=O)/C2=C(\Nc1ccc(N(C)C(=O)CN2CCN(C)CC2)cc1)c1ccccc1 [N, nintedanib, reference compound]	–	–	Relative α-SMA [1]: 0.82 and 0.92 and 0.97
Cc1ccc(=O)n(-c2ccccc2)c1 [P, pirfenidone, reference compound]	–	–	Relative α-SMA (single agent 200 μM, TGF-β alone = 1): 1.29 and 1.02
